US4731370A, “Pyridyl ester containing 1,4-dihydropyridine derivatives and salts thereof and pharmaceutical composition containing the same” (Toyama Chemical Co., Ltd., priority 1984, dated 1988)

Assays:
[1] = tested on: vertebral artery blood flow of a dog; assay: Vertebral artery blood flow increasing activity; type: in vivo, dog (mongrel); details: i.v., amount with same activity as 1 mg/kg (i.v.) papaverine hydrochloride, ratio to papaverine hydrochloride
Description: (§1) The compounds of this invention to be tested were used in the form of a hydrochloride.
The vertebral artery blood flow of a dog (mongrel, 12-22 kg, 2-3 heads per group) anesthetized with pentobarbital sodium (30 mg/kg, i.v.) was measured by means of an electromagnetic flow meter (MFV-2100 manufactured by Nihon Kohden Kogyo).
The test compounds 1, 3 and 10 were adjusted to a concentration of 1 mg/ml with distilled water, and then diluted with a saline solution to the desired concentrations, after which the thus diluted solutions were intravenously administered, and the test compounds 12, 15, 18, 19, 20, 24, 29, 30, 32 and 33 were formed into solutions in the same manner as in Item 1 above and then intravenously administered.

[2] = tested on: Thromboxane-Synthesizing Enzyme; assay: Thromboxane-synthesizing enzyme-inhibitory activity (MDA production in platelet-rich plasma after oral dosing); type: in vivo, rat (Wistar strain); details: rat, 3 mg/kg, blood after one hour
Description: as §1
To a rat (Wistar strain, male, 300-350 g, 4 heads per group) which had been starved overnight was orally administered a test compound solution, and blood was collected from the abdominal aorta using citric acid after one hour. Two milliliters of a 1×10^9 /ml platelet-rich plasma (PRP) was preincubated at 37° C. for 2 minutes. Subsequently, 0.1 ml of 10 mM sodium archidonate was added, and the resulting mixture was subjected to reaction for 6 minutes, after which indomethacin was added thereto to terminate the reaction. The reaction mixture was subjected to deproteinization treatment and reacted with thiobarbituric acid (TBA) reagent, after which the reaction mixture was subjected to extraction with 3 ml of n-butanol. The resulting extract was subjected to colorimetry (λ=532 nm) to determine the amount of malondialdehyde (MDA) produced. As to the platelet-poor plasma (PPP) obtained from the same rat as above, the same procedure as above was repeated to determine the amount of MDA produced, and the difference between the two is indicated as MDA value. Comparing with the MDA values of the control group, the MDA production-inhibition (%) was determined.
The test compounds 1-9 were adjusted to the desired concentrations with water and the test compounds 11-33 and nicardipine were adjusted to a concentration of 5 mg/ml with an aqueous solution containing 10% of each of dimethyl sulfoxide and Cremophor and then diluted with water to the desired concentrations.

[3] = tested on: mouse pulmonary infraction model; assay: Antithrombosis activity, mouse pulmonary infraction model, paralytic time-shortening (0.15 ml epinephrine/collagen); type: in vivo, mouse (ICR strain); details: 1 h, oral, 10 mg/kg, challenge after one hour, 10 mice, read-out: Paralytic time-shortening percentage
Description: as §1
Comparing the paralytic time of the control group, the paralytic time-shortening percentage due to the compound to be tested was determined.
(§2) The test compounds shown in Table 4 were adjusted to the desired concentrations with water, and the test compounds shown in Table 5 were adjusted to a concentration of 5 mg/ml with an aqueous solution containing 10% by volume of each of dimethyl sulfoxide and Cremophor, and then diluted with water to the desired concentrations.

[4] = Acute toxicity, intravenous, mice; details: mouse, in vivo, mice (ICR, male, 4 weeks old, 5 per group)
[5] = tested on: coronary vessel (isolated guinea pig heart); assay: Coronary vasodilating activity (isolated perfused guinea pig heart, coronary effluent); design: species or system guinea pig (Hartley strain); details: Langendorff perfusion, 0.1 ml into aorta, hydrochloride
Description: as §1
The heart of a guinea pig (Hartley strain, male, 500-700 g, 3 heads per group) was isolated and set in the Landendorff perfusing apparatus. About 0.5% defibrinated blood was fed to the apparatus, and the Krebs bicarbonate solution, into which a mixed gas consisting of 95% of O2 and 5% of CO2 had been bubbled was perfused over the heart, after which a 1 mg/ml solution of the test compound in an aqueous solution containing 10% by volume of dimethylsulfoxide and 10% of polyoxyethylfatty acid glyceride [Cremophor EL manufactured by Sigma] was prepared, diluted with a saline solution to the desired concentration, and then administered into the heart in an amount of 0.1 ml through the rubber tube attached to the cannula inserted retrogressively into the aorta. The vasodilating activity was determined by measuring the amount of the solution effluent from the coronary vessel after passing through the aorta by means of an electric drop counter (universal drop counter manufactured by Natsume Seisakusho) and indicated as ED50 value which is the amount necessary for the amount of the effluent solution to increase 50% as compared with those before addition of the test compound.

[6] = tested on: mouse pulmonary infraction model; assay: Antithrombosis activity, mouse pulmonary infraction model, prevention of death and paralysis (0.10 ml epinephrine/collagen); type: in vivo, mouse (ICR strain); details: 1 h; mouse, oral, 10 mg/kg, challenge after one hour; control 25.7%; read-out: Preventive percentage of death + paralysis for 10 minutes or more
Description: as §1
According to the G. DiMinno and M. J. Silver method [J. Pharmacol. Exp. Therap., 225 (1) 57-60 (1983)], a solution of the compound to be tested was orally administered to a mouse (ICR strain, male, 4 weeks old), and 0.15 ml of a mixed solution of epinephrine (100 μM) and collagen (150 μg/ml) was intravenously administered to the mouse after one hour, after which the paralytic time was measured. Comparing the paralytic time of the control group, the paralytic time-shortening percentage due to the compound to be tested was determined. The results obtained are shown in Table 4, in which the case where the paralytic time was 15 minutes was calculated as death.
Moreover, the same experiment was repeated, except that 0.10 ml of a mixed solution of epinephrine (100 μM) and collagen (150 μg/ml) was intravenously administered to the mouse and the effect of preventing the appearance of death and a case where the paralytic time was 10 minutes or more was checked and the results thereof are shown in Table 5.
as §2

Structure (SMILES)	Effect ratio [1]	MDA production-inhibition [2] [%]	inhibition in vivo at 10 mg/kg [3] [%]	LD50 [4] [mg/kg]	ED50 (amount necessary for the amount of the effluent solution to increase 50%) [5] [μg/i.c.]	responders at 10 mg/kg [6] [%]
CC1=C(C(=O)OCCN(C)C/C(C)=C/c2ccc(Cc3cccnc3)cc2)C(c2cccc([N+](=O)[O-])c2)C(C(=O)OC(C)C)=C(C)N1 (stereo not shown) [compound 1]	238	59.4	52.3			
COCCOC(=O)C1=C(C)NC(C)=C(C(=O)OCCN(C)C/C(C)=C/c2ccc(Cc3cccnc3)cc2)C1c1cccc([N+](=O)[O-])c1 (stereo not shown) [compound 3]	385	65.8				
CCOC(=O)C1=C(C)NC(C)=C(C(=O)OCCN(C)C/C(C)=C/c2ccc(Cc3cccnc3)cc2)C1c1cccc([N+](=O)[O-])c1 (stereo not shown) [compound 4]		53.6	38.6			
CC1=C(C(=O)OCCN(C)C/C(C)=C/c2ccc(Cc3cccnc3)cc2)C(c2cccc(Cl)c2Cl)C(C(=O)OC(C)C)=C(C)N1 (stereo not shown) [compound 5]		57.9	93.9			
CC1=C(C(=O)OCCN(C)C/C(C)=C/c2ccc(Cc3cccnc3)cc2)C(c2ccccc2C(F)(F)F)C(C(=O)OC(C)C)=C(C)N1 (stereo not shown) [compound 6]		60.6	87.9			
CC1=C(C(=O)OCCN(C)C/C=C/c2ccc(Cn3ccnc3)cc2)C(c2cccc([N+](=O)[O-])c2)C(C(=O)OC(C)C)=C(C)N1 (stereo not shown) [compound 9]		47.2		≥ 30		
CCOC(=O)C1=C(C)NC(C)=C(C(=O)OCCOCCCc2ccc(Cn3ccnc3)cc2)C1c1cccc([N+](=O)[O-])c1 (stereo not shown) [compound 11]		37.8				
CCOC(=O)C1=C(C)NC(C)=C(C(=O)OCCOC/C(C)=C/c2ccc(Cc3cccnc3)cc2)C1c1cccc([N+](=O)[O-])c1 (stereo not shown) [compound 12]	345	48.1		≥ 75	0.026	77.8
CCOC(=O)C1=C(C)NC(C)=C(C(=O)OCCOC/C=C/c2ccc(Cn3ccnc3)cc2)C1c1cccc([N+](=O)[O-])c1 (stereo not shown) [compound 13]		47.2			0.036	
CCOC(=O)C1=C(C)NC(C)=C(C(=O)OCCOCc2ccc(Cn3ccnc3)cc2)C1c1cccc([N+](=O)[O-])c1 (stereo not shown) [compound 14]					0.023	
CCOC(=O)C1=C(C)NC(C)=C(C(=O)OCCOCc2ccc(Cc3cccnc3)cc2)C1c1cccc([N+](=O)[O-])c1 (stereo not shown) [compound 15]	238				0.0092	
CCOC(=O)C1=C(C)NC(C)=C(C(=O)OCCOC/C=C/c2ccc(Cc3cccnc3)cc2)C1c1cccc([N+](=O)[O-])c1 (stereo not shown) [compound 16]		31.6		≥ 75	0.0105	
COC(=O)C1=C(C)NC(C)=C(C(=O)OCCOC/C(C)=C/c2ccc(Cc3cccnc3)cc2)C1c1cccc([N+](=O)[O-])c1 (stereo not shown) [compound 17]		58.6		≥ 75	0.012	100
CCOC(=O)C1=C(C)NC(C)=C(C(=O)OCCOCCCc2ccc(Cc3cccnc3)cc2)C1c1cccc([N+](=O)[O-])c1 (stereo not shown) [compound 18]	233	40.9			0.026	
CCOC(=O)C1=C(C)NC(C)=C(C(=O)OCCOC/C(C)=C/c2ccc(Oc3cccnc3)cc2)C1c1cccc([N+](=O)[O-])c1 (stereo not shown) [compound 19]	550			≥ 75	0.017	77.8
CCOC(=O)C1=C(C)NC(C)=C(C(=O)OCCOCCCc2ccc(Oc3cccnc3)cc2)C1c1cccc([N+](=O)[O-])c1 (stereo not shown) [compound 20]	535				0.024	70
CCOC(=O)C1=C(C)NC(C)=C(C(=O)OCCOC/C(C)=C/c2ccc(Cc3cccnc3)s2)C1c1cccc([N+](=O)[O-])c1 (stereo not shown) [compound 21]				≥ 75		80
COC(=O)C1=C(C)NC(C)=C(C(=O)OCCOC/C=C/c2ccc(Cc3cccnc3)cc2)C1c1cccc([N+](=O)[O-])c1 (stereo not shown) [compound 22]					0.016	
CC1=C(C(=O)OCCOC/C=C/c2ccc(Cc3cccnc3)cc2)C(c2cccc([N+](=O)[O-])c2)C(C(=O)OCCN(C)Cc2ccccc2)=C(C)N1 (stereo not shown) [compound 23]					0.019	
CC1=C(C(=O)OCCOC/C=C/c2ccc(Cc3cccnc3)cc2)C(c2cccc([N+](=O)[O-])c2)C(C(=O)OC(C)C)=C(C)N1 (stereo not shown) [compound 24]	286					90
COC(=O)C1=C(C)NC(C)=C(C(=O)OCCOC/C=C/c2ccc(Cc3cccnc3)cc2)C1c1ccccc1C(F)(F)F (stereo not shown) [compound 26]						90
CCOC(=O)C1=C(C)NC(C)=C(C(=O)OCCOCCc2ccc(Cc3cccnc3)cc2)C1c1cccc([N+](=O)[O-])c1 (stereo not shown) [compound 27]		35.7				77.8
CCOC(=O)C1=C(C)NC(C)=C(C(=O)OCCSC/C=C/c2ccc(Cc3cccnc3)cc2)C1c1cccc([N+](=O)[O-])c1 (stereo not shown) [compound 28]		31.2				
CC1=C(C(=O)OCCOC/C(C)=C/c2ccc(Cc3cccnc3)cc2)C(c2cccc([N+](=O)[O-])c2)C(C(=O)OC(C)C)=C(C)N1 (stereo not shown) [compound 29]	426	56.8			0.019	90
CCOC(=O)C1=C(C)NC(C)=C(C(=O)OCCCCOC/C(C)=C/c2ccc(Cc3cccnc3)cc2)C1c1cccc([N+](=O)[O-])c1 (stereo not shown) [compound 30]	397			≥ 50		
CCOC(=O)C1=C(C)NC(C)=C(C(=O)OCC(C)COC/C(C)=C/c2ccc(Cc3cccnc3)cc2)C1c1cccc([N+](=O)[O-])c1 (stereo not shown) [compound 31]		50.5				
COC(=O)C1=C(C)NC(C)=C(C(=O)OCC(C)(C)COC/C(C)=C/c2ccc(Cc3cccnc3)cc2)C1c1cccc([N+](=O)[O-])c1 (stereo not shown) [compound 32]	417					
CCOC(=O)C1=C(C)NC(C)=C(C(=O)OCC(C)(C)COC/C(C)=C/c2ccc(Cc3cccnc3)cc2)C1c1cccc([N+](=O)[O-])c1 (stereo not shown) [compound 33]	333	41.5				
